Measured values: paper PMC5215686 (Journal of medicinal chemistry, 2016)
“And” between values parts separate entries of the source, which are not always exact repeats. Equal values may be shown once.

Experiments:
[1] = Plasma and brain exposure after dosing in rats; type: in vivo, Sprague-Dawley rats; settings: rat; for Brain concentration of dosed ligand, 120 min / Brain concentration of dosed ligand, 60 min / Total Plasma Concentration, 15 min / Total Plasma Concentration, 30 min / Total Plasma Concentration, 60 min / Total Plasma Concentration, 120 min: p.o. 10 mg/kg; for Brain concentration of dosed ligand, 120 min / Total Plasma Concentration, 15 min / Total Plasma Concentration, 30 min / Total Plasma Concentration, 60 min / Total Plasma Concentration, 120 min: BQL: quantifiable limit < 12.2 nM; for Plasma exposure in words: i.v. (1 mg/kg) or p.o. (10 mg/kg)
Sprague-Dawley rats = assay: Vogel conflict test; type: in vivo; settings: rat
NIH Swiss Webster mice [2] = assay: Marble burying assay; type: in vivo
HEK293T cells = assay: Cytotoxicity, CellTiter-Glo; type: cell-based, human; settings: for Cytotoxicity in words: 18 h, 100 μM; for Cytotoxicity (18 h) LD50: CellTiter-Glo, n = 4
NIH Swiss Webster mice [3] = assay: Rotarod assay; type: in vivo; settings: 4 r.p.m., 2 min; for Rotarod motorsensory behavior, 10 mg/kg: i.p. 10 mg/kg
[4] = Solubility by light scattering; type: physicochemical; settings: pH=7, by light scattering
[5] = Rat pharmacokinetics i.v. and i.p., plasma and brain concentrations; type: in vivo, Sprague-Dawley rats

C#Cc1ccc2c(c1)C(c1ccccn1)=NCc1c(C(=O)O)ncn1-2 [compound 4]
Brain concentration of dosed ligand, 120 min [1]: (120) BQL ^c

CNC1=Nc2ccc(Cl)cc2C(c2ccccc2)=[N+]([O-])C1 [CDAP, chlordiazepoxide, reference compound]
Vogel conflict, response rate in the unpunished session, 20 mg/kg (Sprague-Dawley rats; 20 mg/kg i.p.): Neither | Vogel conflict, punished response over control, 20 mg/kg (Sprague-Dawley rats; 20 mg/kg i.p., P < 0.05): 330%

C#Cc1ccc2c(c1)C(c1ccccn1)=NCc1c(-c3nc(CC)no3)ncn1-2 [compound 7]
Marble burying vs. vehicle, 10 mg/kg (NIH Swiss Webster mice [2]; i.p. 10 mg/kg, 30 min prior to testing): significant reduction | Sedation-like behavior observed in marble burying (NIH Swiss Webster mice [2]; i.p. 30 mg/kg): weak signs of sedation | Cytotoxicity in words (HEK293T cells): non-toxic | Brain concentration of dosed ligand, 60 min [1]: (60) 3090 nM

C#Cc1ccc2c(c1)C(c1ccccn1)=NCc1c(-c3nc(C)no3)ncn1-2 [compound 6]
Cytotoxicity in words (HEK293T cells): non-toxic | Rotarod motorsensory behavior, 10 mg/kg (NIH Swiss Webster mice [3]): very minor impairment

C#Cc1ccc2c(c1)C(c1ccccc1F)=NCc1c(-c3cnco3)ncn1-2 [compound 10]
Cytotoxicity (18 h) LD50 (HEK293T cells): 61.5 µM and 61.5 ± 10 µM | Rotarod motorsensory behavior, 10 mg/kg (NIH Swiss Webster mice [3]): very minor impairment

C#Cc1ccc2c(c1)C(c1ccccc1)=NCc1c(-c3cnco3)ncn1-2 [compound 8]
Cytotoxicity (18 h) LD50 (HEK293T cells): 66.8 µM and 66.8 ± 9 µM

[2H]C([2H])(C)OC(=O)c1ncn2c1CN=C(c1ccccn1)c1cc(C#C)ccc1-2 [compound 5]
Plasma exposure in words [1]: poor | Total Plasma Concentration, 15 min [1]: BQL ^c | Total Plasma Concentration, 30 min [1]: BQL ^c | Total Plasma Concentration, 60 min [1]: BQL ^c | Brain concentration of dosed ligand, 120 min [1]: (120) BQL ^c | Total Plasma Concentration, 120 min [1]: BQL ^c

C#Cc1ccc2c(c1)C(c1ccccn1)=NCc1c(-c3cnco3)ncn1-2 [compound 9, 5-(8-Ethynyl-6-(pyridin-2-yl)-4H-benzo[f]imidazo[1,5-a][1,4]diazepin-3-yl)oxazole]
solubility [4]: good | Vogel conflict, punished response vs. control, 3 mg/kg (Sprague-Dawley rats; 3 mg/kg i.p., 30 min pretreatment): no increase in response | Vogel conflict, increase of punished response rate over control, 30 mg/kg (Sprague-Dawley rats; 30 mg/kg i.p., 30 min pretreatment): about 220% | Cytotoxicity in words (HEK293T cells): non-toxic | Brain concentration of dosed ligand, 60 min [1]: (60) 3640 nM | Rotarod failures, 30 mg/kg (NIH Swiss Webster mice [3]; i.p. 30 mg/kg): zero failures | Rotarod performance / ataxia, 30 mg/kg (NIH Swiss Webster mice [3]; i.p. 30 mg/kg): did not significantly alter rotarod performance compared to vehicle | time of Cmax ([5]; 10 mg/kg i.p.): 2.0 h | Unbound Concentration (Cu), Brain ([5]; 4 hours after 10 mg/kg i.p., free fraction x total concentration): 363 nM

C#Cc1ccc2c(c1)C(c1ccccn1)=NCc1c(C(=O)OCC)ncn1-2 [compound 2]
Vogel conflict, difference from vehicle in words, 30 mg/kg (Sprague-Dawley rats; 30 mg/kg i.p.): no discernable difference | Cytotoxicity in words (HEK293T cells): non-toxic | Plasma exposure in words [1]: poor | Total Plasma Concentration, 15 min [1]: BQL ^c | Total Plasma Concentration, 30 min [1]: BQL ^c | Total Plasma Concentration, 60 min [1]: BQL ^c | Brain concentration of dosed ligand, 120 min [1]: (120) BQL ^c | Total Plasma Concentration, 120 min [1]: BQL ^c
